Laboratory results published in the kinase profiling compilation of Christmann-Franck et al. (2016).
Where “and” joins values, the source holds several entries; their conditions need not be identical. Equal values may be shown once.

How the values were obtained:
Test in all cases: radiometric filter-binding kinase assay, Kinase HotSpot
Settings in all cases: compound 0.5 µM; ATP 10 µM
SIK2 (human) = SIK2 (human) (UniProt Q9H0K1)
ACVR1 (human) = ACVR1 (human) (UniProt Q04771)
TBK1 (human) = TBK1 (human) (UniProt Q9UHD2)
STK39 (human) = STK39 (human) (UniProt Q9UEW8)
GRK7 (human) = GRK7 (human) (UniProt Q8WTQ7)
ROCK1 (human) = ROCK1 (human) (UniProt Q13464)
Sequence of ROCK1 (human) (Q13464 whole entry, looked up): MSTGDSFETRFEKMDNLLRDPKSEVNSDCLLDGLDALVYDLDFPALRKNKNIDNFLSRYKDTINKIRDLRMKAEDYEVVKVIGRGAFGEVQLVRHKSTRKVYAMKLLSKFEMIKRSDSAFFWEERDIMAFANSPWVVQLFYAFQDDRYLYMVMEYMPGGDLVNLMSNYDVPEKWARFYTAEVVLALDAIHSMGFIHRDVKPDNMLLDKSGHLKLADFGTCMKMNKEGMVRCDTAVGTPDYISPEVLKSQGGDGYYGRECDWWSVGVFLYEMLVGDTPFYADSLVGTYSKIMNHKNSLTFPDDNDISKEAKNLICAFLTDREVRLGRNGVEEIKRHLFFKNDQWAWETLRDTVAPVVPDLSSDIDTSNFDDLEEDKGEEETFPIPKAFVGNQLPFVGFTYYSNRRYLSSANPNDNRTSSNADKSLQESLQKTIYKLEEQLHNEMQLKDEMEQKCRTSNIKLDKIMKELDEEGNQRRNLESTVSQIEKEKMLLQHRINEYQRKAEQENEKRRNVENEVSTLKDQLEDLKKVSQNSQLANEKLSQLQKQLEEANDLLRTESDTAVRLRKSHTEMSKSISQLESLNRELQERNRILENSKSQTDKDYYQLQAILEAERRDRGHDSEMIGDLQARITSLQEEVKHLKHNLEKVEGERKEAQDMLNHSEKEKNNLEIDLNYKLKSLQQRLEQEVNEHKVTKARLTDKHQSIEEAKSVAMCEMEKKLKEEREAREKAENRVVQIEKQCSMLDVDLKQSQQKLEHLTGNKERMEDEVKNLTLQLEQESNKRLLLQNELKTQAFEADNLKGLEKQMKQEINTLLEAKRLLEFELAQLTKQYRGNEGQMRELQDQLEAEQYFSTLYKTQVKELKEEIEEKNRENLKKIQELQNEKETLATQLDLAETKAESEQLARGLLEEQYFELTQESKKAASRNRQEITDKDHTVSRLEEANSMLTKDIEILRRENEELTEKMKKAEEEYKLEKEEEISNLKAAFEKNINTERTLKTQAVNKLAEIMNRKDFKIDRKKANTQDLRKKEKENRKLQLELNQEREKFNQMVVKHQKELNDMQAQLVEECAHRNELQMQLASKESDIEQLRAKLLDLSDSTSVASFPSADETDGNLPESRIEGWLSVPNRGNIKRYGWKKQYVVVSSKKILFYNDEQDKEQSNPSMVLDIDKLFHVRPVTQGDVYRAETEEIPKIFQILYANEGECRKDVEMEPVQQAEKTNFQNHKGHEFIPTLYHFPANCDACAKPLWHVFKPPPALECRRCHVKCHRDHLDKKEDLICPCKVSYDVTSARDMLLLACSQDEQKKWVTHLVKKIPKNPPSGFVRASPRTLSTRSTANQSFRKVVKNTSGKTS

CDK6 CCND1 (human) = CDK6 CCND1 (human) (UniProt Q00534+P24385)
Sequence of CDK6 CCND1 (human) (P24385 whole entry, looked up): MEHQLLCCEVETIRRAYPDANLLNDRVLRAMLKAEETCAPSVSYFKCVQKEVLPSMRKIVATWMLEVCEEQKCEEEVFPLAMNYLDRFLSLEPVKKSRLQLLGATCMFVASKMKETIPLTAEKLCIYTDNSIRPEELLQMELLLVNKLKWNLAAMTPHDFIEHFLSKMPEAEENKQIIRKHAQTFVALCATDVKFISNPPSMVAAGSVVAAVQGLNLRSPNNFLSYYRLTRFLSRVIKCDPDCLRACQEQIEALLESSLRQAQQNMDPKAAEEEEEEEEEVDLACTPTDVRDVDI
Sequence of CDK6 CCND1 (human) (Q00534 whole entry, looked up): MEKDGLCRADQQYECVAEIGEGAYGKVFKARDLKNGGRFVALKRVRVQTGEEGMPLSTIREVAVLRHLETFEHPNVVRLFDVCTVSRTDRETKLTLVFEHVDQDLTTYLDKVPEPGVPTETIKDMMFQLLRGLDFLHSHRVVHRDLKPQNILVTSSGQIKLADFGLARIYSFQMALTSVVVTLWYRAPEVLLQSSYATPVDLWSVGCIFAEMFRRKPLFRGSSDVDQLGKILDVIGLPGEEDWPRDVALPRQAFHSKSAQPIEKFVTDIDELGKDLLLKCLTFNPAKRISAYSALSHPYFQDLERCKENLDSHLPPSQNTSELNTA

PRKD3 (human) = PRKD3 (human) (UniProt O94806)
BRSK1 (human) = BRSK1 (human) (UniProt Q8TDC3)
EPHA2 (human) = EPHA2 (human) (UniProt P29317)
CLK2 (human) = CLK2 (human) (UniProt P49760)
HIPK3 (human) = HIPK3 (human) (UniProt Q9H422)
PRKCG (human) = PRKCG (human) (UniProt P05129)
CSNK1G3 (human) = CSNK1G3 (human) (UniProt Q9Y6M4)
EPHB1 (human) = EPHB1 (human) (UniProt P54762)
HIPK2 (human) = HIPK2 (human) (UniProt Q9H2X6)
GRK6 (human) = GRK6 (human) (UniProt P43250)
DAPK2 (human) = DAPK2 (human) (UniProt Q9UIK4)
NEK9 (human) = NEK9 (human) (UniProt Q8TD19)
MARK3 (human) = MARK3 (human) (UniProt P27448)
STK10 (human) = STK10 (human) (UniProt O94804)
WNK3 (human) = WNK3 (human) (UniProt Q9BYP7)
NEK7 (human) = NEK7 (human) (UniProt Q8TDX7)
Sequence of NEK7 (human) (Q8TDX7 whole entry, looked up): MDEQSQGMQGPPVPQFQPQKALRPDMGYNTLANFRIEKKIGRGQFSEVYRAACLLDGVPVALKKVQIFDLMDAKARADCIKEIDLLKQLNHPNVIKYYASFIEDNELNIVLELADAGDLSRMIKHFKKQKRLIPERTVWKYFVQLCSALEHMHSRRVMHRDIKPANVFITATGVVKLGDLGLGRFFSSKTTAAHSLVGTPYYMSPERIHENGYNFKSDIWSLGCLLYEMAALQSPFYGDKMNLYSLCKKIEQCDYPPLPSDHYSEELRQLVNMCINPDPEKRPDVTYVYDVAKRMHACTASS

CAMK1G (human) = CAMK1G (human) (UniProt Q96NX5)
MAPK10 (human) = MAPK10 (human) (UniProt P53779)
EPHA3 (human) = EPHA3 (human) (UniProt P29320)
EPHB4 (human) = EPHB4 (human) (UniProt P54760)
EPHA1 (human) = EPHA1 (human) (UniProt P21709)
NLK (human) = NLK (human) (UniProt Q9UBE8)
NEK6 (human) = NEK6 (human) (UniProt Q9HC98)
Sequence of NEK6 (human) (Q9HC98 whole entry, looked up): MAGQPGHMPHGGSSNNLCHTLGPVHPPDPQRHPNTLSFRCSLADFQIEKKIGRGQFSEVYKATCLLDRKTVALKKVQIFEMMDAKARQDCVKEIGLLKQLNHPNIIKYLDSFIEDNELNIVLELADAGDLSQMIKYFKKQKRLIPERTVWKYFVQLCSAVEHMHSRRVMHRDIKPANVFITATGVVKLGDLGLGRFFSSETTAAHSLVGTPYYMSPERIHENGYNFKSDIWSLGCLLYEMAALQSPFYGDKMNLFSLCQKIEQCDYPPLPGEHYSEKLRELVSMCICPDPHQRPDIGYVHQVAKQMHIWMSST

CAMK2D (human) = CAMK2D (human) (UniProt Q13557)
CAMK1 (human) = CAMK1 (human) (UniProt Q14012)
FES (human) = FES (human) (UniProt P07332)
DMPK (human) = DMPK (human) (UniProt Q09013)
Sequence of DMPK (human) (Q09013 whole entry, looked up): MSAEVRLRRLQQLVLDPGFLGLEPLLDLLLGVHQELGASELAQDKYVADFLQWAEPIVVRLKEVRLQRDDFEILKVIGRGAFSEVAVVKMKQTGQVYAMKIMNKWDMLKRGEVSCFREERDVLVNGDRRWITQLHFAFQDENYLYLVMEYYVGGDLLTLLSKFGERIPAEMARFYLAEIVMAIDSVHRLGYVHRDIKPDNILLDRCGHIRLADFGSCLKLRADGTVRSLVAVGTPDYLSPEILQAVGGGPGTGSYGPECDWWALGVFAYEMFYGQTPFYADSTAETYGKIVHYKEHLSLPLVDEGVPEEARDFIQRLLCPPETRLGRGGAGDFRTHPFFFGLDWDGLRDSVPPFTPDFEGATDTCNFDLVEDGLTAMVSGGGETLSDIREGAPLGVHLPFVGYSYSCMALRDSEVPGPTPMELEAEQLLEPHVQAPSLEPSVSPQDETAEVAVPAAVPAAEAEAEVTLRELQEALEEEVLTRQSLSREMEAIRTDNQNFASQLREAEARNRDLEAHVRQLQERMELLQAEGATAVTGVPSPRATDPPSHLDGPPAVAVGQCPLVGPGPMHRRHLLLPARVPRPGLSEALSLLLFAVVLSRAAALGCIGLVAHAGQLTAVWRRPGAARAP

NEK11 (human) = NEK11 (human) (UniProt Q8NG66)
DAPK1 (human) = DAPK1 (human) (UniProt P53355)
MAPK9 (human) = MAPK9 (human) (UniProt P45984)
IRAK4 (human) = IRAK4 (human) (UniProt Q9NWZ3)
Sequence of IRAK4 (human) (Q9NWZ3 whole entry, looked up): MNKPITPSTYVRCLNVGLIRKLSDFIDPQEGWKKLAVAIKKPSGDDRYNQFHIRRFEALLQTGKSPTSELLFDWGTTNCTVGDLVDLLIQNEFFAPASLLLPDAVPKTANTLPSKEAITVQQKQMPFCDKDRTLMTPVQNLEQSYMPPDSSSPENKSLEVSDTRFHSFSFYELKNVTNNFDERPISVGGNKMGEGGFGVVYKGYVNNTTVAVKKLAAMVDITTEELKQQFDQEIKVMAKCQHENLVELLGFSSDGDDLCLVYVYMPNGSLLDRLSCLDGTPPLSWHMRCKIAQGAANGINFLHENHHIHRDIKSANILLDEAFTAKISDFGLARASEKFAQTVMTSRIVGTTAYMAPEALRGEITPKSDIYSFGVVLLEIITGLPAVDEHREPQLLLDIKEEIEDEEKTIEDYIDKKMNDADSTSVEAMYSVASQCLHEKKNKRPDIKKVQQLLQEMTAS

EPHA7 (human) = EPHA7 (human) (UniProt Q15375)
LYN (human) = LYN (human) (UniProt P07948)
PRKX (human) = PRKX (human) (UniProt P51817)
Sequence of PRKX (human) (P51817 whole entry, looked up): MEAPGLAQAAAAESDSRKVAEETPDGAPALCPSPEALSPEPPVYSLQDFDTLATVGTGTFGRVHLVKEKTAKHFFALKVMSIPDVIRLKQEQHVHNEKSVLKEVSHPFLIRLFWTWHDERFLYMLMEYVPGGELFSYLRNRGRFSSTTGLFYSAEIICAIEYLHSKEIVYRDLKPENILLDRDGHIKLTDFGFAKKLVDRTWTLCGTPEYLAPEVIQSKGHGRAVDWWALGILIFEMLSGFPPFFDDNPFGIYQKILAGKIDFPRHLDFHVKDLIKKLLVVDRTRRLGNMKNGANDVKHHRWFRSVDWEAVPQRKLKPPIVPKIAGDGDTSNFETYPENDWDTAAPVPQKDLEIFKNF

MAP3K7 TAB1 (human) = MAP3K7 TAB1 (human) (UniProt O43318+Q15750)

Sequence of SIK2 (human) (Q9H0K1 whole entry, looked up): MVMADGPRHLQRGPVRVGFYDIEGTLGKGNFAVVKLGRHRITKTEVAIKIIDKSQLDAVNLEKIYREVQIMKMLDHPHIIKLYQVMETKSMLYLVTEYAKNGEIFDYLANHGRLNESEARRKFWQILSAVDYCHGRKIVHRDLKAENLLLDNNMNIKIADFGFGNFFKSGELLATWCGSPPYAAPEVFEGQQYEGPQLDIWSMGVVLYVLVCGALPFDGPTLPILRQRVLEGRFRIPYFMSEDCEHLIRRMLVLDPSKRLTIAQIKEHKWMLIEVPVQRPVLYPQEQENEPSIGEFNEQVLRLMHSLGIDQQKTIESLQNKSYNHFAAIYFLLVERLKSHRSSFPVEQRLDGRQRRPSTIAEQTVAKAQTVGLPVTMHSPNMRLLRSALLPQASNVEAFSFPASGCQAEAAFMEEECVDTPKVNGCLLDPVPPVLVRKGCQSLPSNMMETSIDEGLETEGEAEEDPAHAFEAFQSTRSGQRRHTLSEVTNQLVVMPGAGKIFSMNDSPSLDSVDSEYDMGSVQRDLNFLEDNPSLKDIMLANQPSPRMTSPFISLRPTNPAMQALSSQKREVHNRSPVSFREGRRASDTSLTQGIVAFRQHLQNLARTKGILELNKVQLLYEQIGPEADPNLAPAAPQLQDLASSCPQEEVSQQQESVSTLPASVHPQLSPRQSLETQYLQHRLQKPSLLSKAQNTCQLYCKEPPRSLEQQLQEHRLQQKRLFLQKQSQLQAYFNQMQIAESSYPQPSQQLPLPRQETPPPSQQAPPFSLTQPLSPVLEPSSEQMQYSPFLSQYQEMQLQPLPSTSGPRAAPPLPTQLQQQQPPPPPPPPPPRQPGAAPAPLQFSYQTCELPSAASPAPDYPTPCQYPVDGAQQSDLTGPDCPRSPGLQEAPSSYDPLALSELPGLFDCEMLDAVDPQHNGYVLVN

Compound: O=C1Nc2ccccc2/C1=C1\Nc2ccccc2\C1=N/O
- residual activity (SIK2 (human)): 89.8%
- residual activity (ACVR1 (human)): 112%
- residual activity (TBK1 (human)): 53.6%
- residual activity (STK39 (human)): 90.4%
- residual activity (GRK7 (human)): 84.4%
- residual activity (ROCK1 (human)): 101%
- residual activity (CDK6 CCND1 (human)): 52.8%
- residual activity (PRKD3 (human)): 88.4%
- residual activity (BRSK1 (human)): 23.4%
- residual activity (EPHA2 (human)): 84.3%
- residual activity (CLK2 (human)): 92.5%
- residual activity (HIPK3 (human)): 89.2%
- residual activity (PRKCG (human)): 96.7%
- residual activity (CSNK1G3 (human)): 81.9%
- residual activity (EPHB1 (human)): 86.2%
- residual activity (HIPK2 (human)): 104%
- residual activity (GRK6 (human)): 89.4%
- residual activity (DAPK2 (human)): 110%
- residual activity (NEK9 (human)): 95.4%
- residual activity (MARK3 (human)): 85.8%
- residual activity (STK10 (human)): 74%
- residual activity (WNK3 (human)): 89.4%
- residual activity (NEK7 (human)): 106%
- residual activity (CAMK1G (human)): 101%
- residual activity (MAPK10 (human)): 96.4%
- residual activity (EPHA3 (human)): 92%
- residual activity (EPHB4 (human)): 85.9%
- residual activity (EPHA1 (human)): 99.4%
- residual activity (NLK (human)): 94.6%
- residual activity (NEK6 (human)): 92.2%
- residual activity (CAMK2D (human)): 60.4%
- residual activity (CAMK1 (human)): 83.7%
- residual activity (FES (human)): 92.4%
- residual activity (DMPK (human)): 101%
- residual activity (NEK11 (human)): 98.2%
- residual activity (DAPK1 (human)): 83.2%
- residual activity (MAPK9 (human)): 65.6%
- residual activity (IRAK4 (human)): 102%
- residual activity (EPHA7 (human)): 89.3%
- residual activity (LYN (human)): 64.6% and 79.6%
- residual activity (PRKX (human)): 88.8%

Compound: O=C1NC(=O)C(c2cn(CCCO)c3ncccc23)=C1c1cnccn1
- residual activity (SIK2 (human)): 101%
- residual activity (ACVR1 (human)): 97%
- residual activity (TBK1 (human)): 98.8%
- residual activity (STK39 (human)): 111%
- residual activity (GRK7 (human)): 118%
- residual activity (ROCK1 (human)): 90.2%
- residual activity (CDK6 CCND1 (human)): 83.4%
- residual activity (PRKD3 (human)): 78.2%
- residual activity (BRSK1 (human)): 89.2%
- residual activity (EPHA2 (human)): 105%
- residual activity (CLK2 (human)): 98.9%
- residual activity (HIPK3 (human)): 89.2%
- residual activity (PRKCG (human)): 93.1%
- residual activity (CSNK1G3 (human)): 107%
- residual activity (HIPK2 (human)): 96.6%
- residual activity (GRK6 (human)): 102%
- residual activity (DAPK2 (human)): 88.4%
- residual activity (NEK9 (human)): 93.4%
- residual activity (MARK3 (human)): 87.8%
- residual activity (STK10 (human)): 104%
- residual activity (WNK3 (human)): 91.3%
- residual activity (NEK7 (human)): 95.4%
- residual activity (CAMK1G (human)): 101%
- residual activity (MAPK10 (human)): 88%
- residual activity (EPHA3 (human)): 102%
- residual activity (MAP3K7 TAB1 (human)): 95.5%
- residual activity (EPHB4 (human)): 95.2%
- residual activity (EPHA1 (human)): 73.9%
- residual activity (NLK (human)): 91.2%
- residual activity (NEK6 (human)): 94.2%
- residual activity (CAMK2D (human)): 101%
- residual activity (CAMK1 (human)): 101%
- residual activity (FES (human)): 121%
- residual activity (DMPK (human)): 99.6%
- residual activity (NEK11 (human)): 108%
- residual activity (DAPK1 (human)): 74.4%
- residual activity (MAPK9 (human)): 100%
- residual activity (IRAK4 (human)): 129%
- residual activity (EPHA7 (human)): 105%
- residual activity (LYN (human)): 101% and 112%
- residual activity (PRKX (human)): 106%

Compound: CN([C@@H](Cc1ccc(OS(=O)(=O)c2cccc3cnccc23)cc1)C(=O)N1CCN(c2ccccc2)CC1)S(=O)(=O)c1cccc2cnccc12
- residual activity (SIK2 (human)): 108%
- residual activity (ACVR1 (human)): 95%
- residual activity (TBK1 (human)): 101%
- residual activity (STK39 (human)): 93.5%
- residual activity (GRK7 (human)): 105%
- residual activity (ROCK1 (human)): 97.9%
- residual activity (CDK6 CCND1 (human)): 91.6%
- residual activity (PRKD3 (human)): 99.2%
- residual activity (BRSK1 (human)): 96.4%
- residual activity (EPHA2 (human)): 101%
- residual activity (CLK2 (human)): 93%
- residual activity (HIPK3 (human)): 110%
- residual activity (PRKCG (human)): 95.4%
- residual activity (CSNK1G3 (human)): 104%
- residual activity (EPHB1 (human)): 94.2%
- residual activity (HIPK2 (human)): 109%
- residual activity (GRK6 (human)): 101%
- residual activity (DAPK2 (human)): 99.7%
- residual activity (NEK9 (human)): 97.6%
- residual activity (MARK3 (human)): 93.7%
- residual activity (STK10 (human)): 96.3%
- residual activity (WNK3 (human)): 101%
- residual activity (NEK7 (human)): 93.3%
- residual activity (CAMK1G (human)): 93.6%
- residual activity (MAPK10 (human)): 88.2%
- residual activity (EPHA3 (human)): 102%
- residual activity (MAP3K7 TAB1 (human)): 93.4%
- residual activity (EPHA1 (human)): 102%
- residual activity (NLK (human)): 106%
- residual activity (NEK6 (human)): 101%
- residual activity (CAMK2D (human)): 92.8%
- residual activity (CAMK1 (human)): 105%
- residual activity (FES (human)): 97.7%
- residual activity (DMPK (human)): 108%
- residual activity (NEK11 (human)): 103%
- residual activity (DAPK1 (human)): 117%
- residual activity (MAPK9 (human)): 85.6%
- residual activity (IRAK4 (human)): 92.1%
- residual activity (EPHA7 (human)): 102%
- residual activity (LYN (human)): 101% and 92.1%
- residual activity (PRKX (human)): 109%

Compound: Nc1nnc2[nH]c3ccccc3nc1-2
- residual activity (SIK2 (human)): 102%
- residual activity (ACVR1 (human)): 94.3%
- residual activity (TBK1 (human)): 92%
- residual activity (STK39 (human)): 116%
- residual activity (ROCK1 (human)): 99%
- residual activity (CDK6 CCND1 (human)): 105%
- residual activity (PRKD3 (human)): 87.3%
- residual activity (BRSK1 (human)): 91.5%
- residual activity (EPHA2 (human)): 98.5%
- residual activity (CLK2 (human)): 96.1%
- residual activity (HIPK3 (human)): 97.4%
- residual activity (PRKCG (human)): 97.3%
- residual activity (CSNK1G3 (human)): 95.6%
- residual activity (EPHB1 (human)): 92.3%
- residual activity (HIPK2 (human)): 95.9%
- residual activity (GRK6 (human)): 104%
- residual activity (DAPK2 (human)): 91%
- residual activity (NEK9 (human)): 98.5%
- residual activity (MARK3 (human)): 102%
- residual activity (STK10 (human)): 94.6%
- residual activity (WNK3 (human)): 98%
- residual activity (NEK7 (human)): 93.1%
- residual activity (CAMK1G (human)): 97.9%
- residual activity (MAPK10 (human)): 92.1%
- residual activity (EPHA3 (human)): 95.2%
- residual activity (MAP3K7 TAB1 (human)): 100%
- residual activity (EPHB4 (human)): 84.9%
- residual activity (EPHA1 (human)): 100%
- residual activity (NLK (human)): 95.2%
- residual activity (NEK6 (human)): 95.5%
- residual activity (CAMK2D (human)): 89.4%
- residual activity (CAMK1 (human)): 94.4%
- residual activity (FES (human)): 96.8%
- residual activity (DMPK (human)): 98.4%
- residual activity (NEK11 (human)): 110%
- residual activity (DAPK1 (human)): 91.5%
- residual activity (MAPK9 (human)): 103%
- residual activity (IRAK4 (human)): 94.7%
- residual activity (EPHA7 (human)): 95.3%
- residual activity (LYN (human)): 108% and 97%
- residual activity (PRKX (human)): 102%
